In test [1] the target is Sodium-dependent noradrenaline transporter (Homo sapiens, UniProt P23975).
Description: Inhibition of norepinephrine uptake at human NET expressed in MDCK cells
In test [2] the target is Sodium-dependent dopamine transporter (Homo sapiens) (UniProt Q01959). As to the kind of experiment: Displacement of [3H]WIN-35428 from human recombinant DAT expressed in CHO cells at 1 uM. Type of test: cell-based. (Loss of bound radioactivity is the signal in a displacement assay; it reports binding, not function.)
Test [3] concerns the target Sodium-dependent serotonin transporter (Homo sapiens, UniProt P31645). Type of test: cell-based, JAR.
Description: Inhibition of serotonin uptake at human SERT expressed in JAR cells

Bounds are passed on as bounds.

Chain of Sodium-dependent dopamine transporter (Homo sapiens) (Q01959 whole entry): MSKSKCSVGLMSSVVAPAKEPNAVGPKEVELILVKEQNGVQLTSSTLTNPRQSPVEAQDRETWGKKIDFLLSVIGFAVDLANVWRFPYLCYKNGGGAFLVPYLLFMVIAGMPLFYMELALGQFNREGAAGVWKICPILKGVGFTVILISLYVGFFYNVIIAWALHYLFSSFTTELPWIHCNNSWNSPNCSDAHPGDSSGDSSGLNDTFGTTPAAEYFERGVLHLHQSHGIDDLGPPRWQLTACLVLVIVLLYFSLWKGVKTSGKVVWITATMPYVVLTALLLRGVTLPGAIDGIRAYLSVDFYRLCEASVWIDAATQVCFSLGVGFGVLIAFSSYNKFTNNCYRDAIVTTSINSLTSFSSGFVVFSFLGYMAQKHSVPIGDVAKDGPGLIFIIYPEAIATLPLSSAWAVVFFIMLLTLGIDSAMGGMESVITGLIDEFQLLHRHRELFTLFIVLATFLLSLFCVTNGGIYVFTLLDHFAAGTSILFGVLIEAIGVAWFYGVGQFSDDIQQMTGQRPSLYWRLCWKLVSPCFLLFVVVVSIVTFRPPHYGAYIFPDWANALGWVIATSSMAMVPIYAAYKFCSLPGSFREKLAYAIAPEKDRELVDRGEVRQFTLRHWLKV
Chain of Sodium-dependent noradrenaline transporter (P23975 whole entry): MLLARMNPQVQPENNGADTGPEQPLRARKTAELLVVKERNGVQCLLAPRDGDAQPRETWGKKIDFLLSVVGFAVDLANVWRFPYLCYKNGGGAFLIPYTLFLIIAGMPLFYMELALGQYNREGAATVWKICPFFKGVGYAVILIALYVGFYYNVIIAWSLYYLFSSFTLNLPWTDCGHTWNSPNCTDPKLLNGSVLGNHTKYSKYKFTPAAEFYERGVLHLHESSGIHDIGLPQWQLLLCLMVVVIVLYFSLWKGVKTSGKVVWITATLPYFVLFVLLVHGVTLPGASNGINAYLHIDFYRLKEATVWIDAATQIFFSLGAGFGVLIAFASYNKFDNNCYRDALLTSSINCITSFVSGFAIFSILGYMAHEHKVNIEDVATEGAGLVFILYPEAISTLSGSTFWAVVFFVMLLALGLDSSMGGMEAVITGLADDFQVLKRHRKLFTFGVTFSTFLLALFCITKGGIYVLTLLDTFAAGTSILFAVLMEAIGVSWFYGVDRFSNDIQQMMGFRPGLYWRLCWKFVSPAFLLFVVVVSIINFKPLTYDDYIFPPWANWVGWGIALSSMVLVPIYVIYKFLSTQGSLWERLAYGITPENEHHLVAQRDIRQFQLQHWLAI
Chain of Sodium-dependent serotonin transporter (P31645 whole entry): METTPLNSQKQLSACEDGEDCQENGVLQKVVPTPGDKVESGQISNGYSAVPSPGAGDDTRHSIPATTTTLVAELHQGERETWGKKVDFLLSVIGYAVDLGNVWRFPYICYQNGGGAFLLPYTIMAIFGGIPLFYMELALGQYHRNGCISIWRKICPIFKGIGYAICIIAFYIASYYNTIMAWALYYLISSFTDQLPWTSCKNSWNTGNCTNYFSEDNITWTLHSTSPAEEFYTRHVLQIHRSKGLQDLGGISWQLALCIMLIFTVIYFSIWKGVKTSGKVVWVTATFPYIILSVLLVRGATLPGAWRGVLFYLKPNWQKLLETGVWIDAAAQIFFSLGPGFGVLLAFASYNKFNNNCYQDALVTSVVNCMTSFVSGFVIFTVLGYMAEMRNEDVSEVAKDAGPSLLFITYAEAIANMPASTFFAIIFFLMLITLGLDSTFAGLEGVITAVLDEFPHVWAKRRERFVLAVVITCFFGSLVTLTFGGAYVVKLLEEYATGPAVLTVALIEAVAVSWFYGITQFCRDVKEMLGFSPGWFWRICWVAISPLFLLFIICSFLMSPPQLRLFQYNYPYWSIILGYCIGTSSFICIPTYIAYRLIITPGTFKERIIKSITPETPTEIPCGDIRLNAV

Take `CNCC[C@H](c1cc(F)cc(Cl)c1)N1C(=O)C(C)(C)c2cccc(F)c21`: the IC50 in test [1] was 19 nM; in test [3], greater than 3000 nM. Also, the Activity in test [2] amounted to 0%.

Take `CNCC[C@H](c1ccccc1)N1C(=O)C2(CCCCC2)c2ccccc21`: the IC50 in test [1] is 53 nM; in test [3], greater than 3000 nM. Also, the Activity in test [2] came to 26%.

As for `CNCC[C@@H](c1ccccc1)N1C(=O)C(C)(C)c2ccccc21`, the IC50 is greater than 3000 nM in test [1] and 1950 nM in test [3]. Besides, in test [2], the Activity came out at 3%.

`CNCC[C@H](c1cccc(Cl)c1)N1C(=O)C(C)(C)c2cccc(F)c21`: the concentration for half-maximal inhibition (IC50) in test [1] turned out to be 7 nM; in test [3], 290 nM. In addition, the Activity in test [2] is 10%.

Turning to `CNCC[C@@H](c1cccc(F)c1)N1C(=O)C2(CCCCC2)c2ccccc21`, the IC50 is greater than 3000 nM in test [1] and 1150 nM in test [3]. Moreover, the Activity in test [2] came to 1%.

Take `CNCC[C@H](c1cc(F)cc(F)c1)N1C(=O)C(C)(C)c2cccc(F)c21`: the half-inhibitory concentration (IC50) came out at 6 nM in test [1] and 330 nM in test [3]. Further, the Activity in test [2] came to 0%.

For the molecule `CNCC[C@H](c1cccc(F)c1)N1C(=O)C(C)(C)c2cccc(F)c21`, the figures for the IC50 in test [1] and in test [3] were 14 nM and 2550 nM, respectively. In test [2], the Activity amounted to 7%.

As for `CNCC[C@H](c1cccc(F)c1)N1C(=O)C2(CCCCC2)c2ccccc21`, the IC50 in test [1] is 26 nM; in test [3], greater than 3000 nM. Further, in test [2], the Activity worked out at 20%.

Turning to `CNCCC(c1ccccc1)n1ccc2ccccc21` (configuration not stated), the IC50 in test [1] was 47 nM; in test [3], 327 nM. Besides, the Activity in test [2] is 44%.

Turning to `CNCC[C@@H](c1ccccc1)N1C(=O)C2(CCCCC2)c2ccccc21`, the figures for the IC50 in test [1] and in test [3] were greater than 3000 nM and 1750 nM, respectively. Further, the Activity in test [2] was found to be 0%.

For `CNCC[C@H](c1ccccc1)N1C(=O)C(C)(C)c2cccc(F)c21`, the concentration for half-maximal inhibition (IC50) in test [1] was 175 nM; in test [3], greater than 3000 nM. Also, the Activity in test [2] stood at 3%.

On to `CNCCC(Oc1ccccc1OC)c1ccccc1` (configuration not stated) [NISOXETINE], for which inhibition in test [3] was half-maximal at 277 nM (IC50).

As to `CNCC[C@H](c1ccccc1)N1C(=O)C(C)(C)c2ccccc21`, the IC50 in test [1] turned out to be 7 nM; in test [3], 1350 nM. Moreover, in test [2], the Activity was found to be 0%.

Broadly, the IC50 is the concentration needed to halve the response being measured. Low values mean inhibition by little substance, high ones a need for much substance.

The values are drawn from ChEMBL document CHEMBL1144192, “Synthesis and activity of 1-(3-amino-1-phenylpropyl)indolin-2-ones: a new class of selective norepinephrine reuptake inhibitors” (Bioorg Med Chem Lett, 2008).
